In PubChem BioAssay (NCI) one finds TGI data, which are given here for 20 compounds.

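Grown in 96-well plates, cells were treated for 48 hours with each compound at five concentrations. Insufficient inhibition: endpoint recorded as highest concentration tested. TGI denotes the concentration required for complete inhibition of growth.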

Common to all, as to assay: DTP human tumour cell line panel, 48 h
The subject of assay [1] is DU-145 prostate.
Assay [2] concerns UACC-62 melanoma.
Assay [3] concerns MCF7 breast.
Assay [4] relates to UO-31 renal.
The subject of assay [5] is LOX IMVI melanoma.
The subject of assay [6] is M14 melanoma.
Assay [7] deals with SK-MEL-5 melanoma.
The subject of assay [8] is KM12 colon.
Assay [9] has as its system NCI-H460 lung.
For assay [10], the system named is ACHN renal.
For assay [11], the system named is SNB-19 CNS.
For assay [12], the system named is CCRF-CEM leukemia.
For assay [13], the system named is SK-MEL-28 melanoma.
In assay [14] the test system is SF-268 CNS.
In assay [15] the test system is HT29 colon.
For assay [16], the system named is HOP-62 NSCLC.

Turning to `C=C1c2nc3ccccc3n2C=C(c2ccccc2)N1c1ccccc1`, the TGI in [1], in [2], in [3], in [4], in assay [5] and in assay [6] was greater than 100 µM throughout. The total growth inhibition concentration (TGI) in assay [7] is 83.3 µM; in assay [8] it was 59.8 µM; in assay [9], 79.6 µM; in [10] it was greater than 100 µM; in [11], greater than 100 µM; in assay [12], greater than 100 µM.

As for `ClC1=C(Cc2ccccc2)Cc2ccc3c(c21)CCC3`, the concentration for total growth inhibition (TGI) was greater than 100 µM in assay [13]; greater than 100 µM in assay [14]; greater than 100 µM in assay [1]; 60.3 µM in assay [2]; 37.7 µM in assay [3]; 69.6 µM in [4]. The TGI in assay [5] is 32.9 µM; in [6], greater than 100 µM; in assay [7] it was 40.6 µM; in assay [15], 50.9 µM; in [8], 39.2 µM; in [10] it was greater than 100 µM. Moreover, the TGI was 52 µM in assay [11], greater than 100 µM in assay [16] and 90.1 µM in [12].

For the compound `CC(NC(=O)OC(C)(C)C)C(=O)C(N)=O` (stereo not drawn), the total growth inhibition concentration (TGI) in [13], in assay [14], in [1], in assay [3], in assay [4] and in assay [5] was greater than 100 µM each time. The TGI in assay [6], in [7], in [9], in assay [10], in assay [11] and in assay [16] was greater than 100 µM in each case. For the same compound, in assay [12], the TGI is greater than 100 µM.

`c1ccc(/N=N/Nc2ccc(-c3nc4ccccc4[nH]3)cc2)nc1`: the TGI in assay [13] is 38.7 µM; in [1] it was 27.7 µM; in assay [3], 23.4 µM; in [4], 49.3 µM; in [5], 43.7 µM; in assay [6], greater than 100 µM. Also, the concentration for total growth inhibition (TGI) in assay [7] was greater than 100 µM; in assay [15], 45.2 µM; in assay [8], 30.7 µM; in assay [9], 31.6 µM; in assay [10], 34.2 µM; in assay [11], 44 µM. Besides, the concentration for total growth inhibition (TGI) in assay [16] came to 30.2 µM; in [12], 9.79 µM.

Regarding `COc1ccc(O)c(C=NCCCN=Cc2cc(OC)ccc2O)c1`, the concentration for total growth inhibition (TGI) in assay [13] was greater than 100 µM; in [1] it was 80.5 µM; in [2] it was 84.5 µM; in assay [3], 56.9 µM; in [4], greater than 100 µM; in assay [6], greater than 100 µM. Moreover, the total growth inhibition concentration (TGI) in assay [15] was greater than 100 µM; in assay [8], 64.6 µM; in assay [9], greater than 100 µM; in assay [10], 74.4 µM; in assay [11] it was greater than 100 µM; in assay [16], greater than 100 µM. The TGI in assay [12] was 83.5 µM.

On to `S=C(S)N1CCN(c2ccc(Cl)c(Cl)c2)CC1`, for which the TGI is 62.7 µM in [13]; greater than 100 µM in assay [14]; 57 µM in [1]; 70.9 µM in assay [3]; 31.6 µM in [5]; 40.7 µM in assay [6]. Moreover, the TGI in assay [7] is 30.5 µM; in assay [15], 49.3 µM; in [8], 34.5 µM; in assay [10] it was greater than 100 µM; in assay [11], greater than 100 µM; in [16] it was greater than 100 µM. Besides, the concentration for total growth inhibition (TGI) in assay [12] is greater than 100 µM.

As for `COc1nc2sc3c(c2c(=O)n1CCCSSCCCn1c(OC)nc2sc4c(c2c1=O)CCCC4)CCCC3`, the TGI in assay [13], in [1], in [2], in [3], in assay [4] and in [5] was greater than 100 µM throughout. In addition, the TGI in assay [6], in assay [7], in assay [15], in assay [8], in assay [10] and in assay [11] was greater than 100 µM each time. Moreover, the TGI in assay [16] and in assay [12] was greater than 100 µM throughout.

Turning to `N/N=C1/CCCc2nonc21`, the concentration for total growth inhibition (TGI) in [13], in assay [14], in [1], in assay [2], in assay [3] and in assay [5] was greater than 100 µM in each case. Besides, the TGI in assay [6], in assay [7], in assay [15], in [8], in assay [9] and in assay [10] was greater than 100 µM in each case. Also, the TGI in assay [16] and in assay [12] was greater than 100 µM throughout.

Consider `O=C(Cc1ccc(Cl)c(Cl)c1)N(CCc1ccc(Cl)c(Cl)c1)CCN1CCCC1`, for which the TGI is 2.99 µM in [13]; 5.5 µM in assay [14]; 4.59 µM in assay [1]; 3.27 µM in assay [2]; 3.27 µM in [3]; 3.46 µM in [4]. Moreover, the TGI in assay [6] worked out at 3.56 µM; in [7], 3.41 µM; in assay [15], 3.56 µM; in [8], 3.67 µM; in [9], 3.39 µM; in [10] it was 3.28 µM. The total growth inhibition concentration (TGI) in assay [11] amounted to 4.9 µM; in assay [16], 3.38 µM; in assay [12] it was 3.12 µM.

For `Cc1n[nH]c(=O)n1/N=C/c1c[nH]c2ccccc12`, the concentration for total growth inhibition (TGI) in assay [13], in assay [14], in assay [1], in [2], in [3] and in [4] was greater than 100 µM throughout. In addition, the total growth inhibition concentration (TGI) in assay [6], in assay [8], in [9], in assay [10], in assay [11] and in assay [16] was greater than 100 µM in each case. Moreover, the TGI in [12] was greater than 100 µM.

With `N#CC1=C(N)OC(c2ccc([N+](=O)[O-])cc2)C1(C#N)C#N` (stereo not drawn), the total growth inhibition concentration (TGI) is 26.9 µM in [13]; greater than 54.3 µM in assay [14]; 32.1 µM in assay [1]; 24.3 µM in assay [2]; 42.4 µM in [3]; 11.5 µM in assay [4]. For the same compound, the TGI in [5] was 21.6 µM; in assay [6], 38.9 µM; in assay [7], 31.9 µM; in [15], 22.9 µM; in assay [8], greater than 48.4 µM; in assay [10], 23.8 µM. The TGI in assay [11] is greater than 53.2 µM; in [16], greater than 53 µM; in [12], 43.3 µM.

`CN(C)c1nc(NN)c2c(-c3ccccc3)c(-c3ccccc3)oc2n1`: the TGI in assay [13], in assay [14], in assay [1], in assay [2], in [3] and in assay [4] was greater than 100 µM in each case. Further, the TGI in [5], in assay [6], in [15], in assay [8], in assay [10] and in [11] was greater than 100 µM in each case. The compound further had a TGI in assay [12] greater than 100 µM.

For `O=C(NCCO)Nc1c(C(F)(F)F)cc(-c2ccccc2)[nH]c1=O`, the TGI in assay [13], in assay [1], in [2], in assay [3], in assay [4] and in assay [5] was greater than 100 µM in each case. Also, the TGI in assay [6], in assay [7], in assay [15], in assay [8], in assay [9] and in assay [10] was greater than 100 µM throughout. Further, the TGI in assay [11], in [16] and in [12] was greater than 100 µM in each case.

Turning to `FC(F)(Sc1ccccc1)c1nc2ccccc2o1`, the concentration for total growth inhibition (TGI) in [13], in assay [14], in assay [1], in [2], in assay [3] and in assay [4] was greater than 100 µM throughout. Further, the TGI in [6], in [7], in assay [15], in assay [8], in assay [9] and in assay [10] was greater than 100 µM each time. In addition, the total growth inhibition concentration (TGI) in assay [16] is greater than 100 µM; in assay [12], 55.5 µM.

Consider `CC1(C)CN=C(Nc2cccc(C(F)(F)F)c2)S1`, for which the concentration for total growth inhibition (TGI) in assay [13], in [14], in [1], in assay [2], in [3] and in [4] was greater than 100 µM each time. The total growth inhibition concentration (TGI) in assay [5], in assay [6], in assay [7], in assay [15], in [8] and in [10] was greater than 100 µM throughout. In addition, the TGI in [11], in assay [16] and in assay [12] was greater than 100 µM each time.

With `O=C1CC2(CCNCC2)C(=O)N1N1CCCC1`, the total growth inhibition concentration (TGI) in [1], in [2], in [3], in assay [4], in assay [5] and in [6] was greater than 100 µM throughout. Besides, the total growth inhibition concentration (TGI) in [7], in assay [15], in [8], in assay [10], in assay [11] and in [16] was greater than 100 µM throughout. In addition, the TGI in [12] was greater than 100 µM.

For the compound `CC(=O)Oc1ccccc1C(=O)O`, the concentration for total growth inhibition (TGI) in assay [13], in [14], in assay [1], in assay [2], in assay [3] and in [4] was greater than 100 µM throughout. Also, the TGI in assay [5], in assay [6], in [7], in assay [15], in assay [8] and in [10] was greater than 100 µM in each case. Besides, the TGI in [11], in assay [16] and in [12] was greater than 100 µM in each case.

Turning to `COc1cc([C@@H]2c3[nH]c4ccccc4c3C(Nc3ccc([N+](=O)[O-])cc3)[C@H]3COC(=O)N23)cc(OC)c1O` (stereo partly drawn), the total growth inhibition concentration (TGI) in assay [13] was determined as 0.704 µM; in assay [14], 5.35 µM; in assay [1], 0.744 µM; in assay [2], 1.17 µM; in assay [3] it was 0.624 µM; in assay [4], 3.22 µM. In addition, the total growth inhibition concentration (TGI) came to 0.297 µM in [5]; 2.2 µM in assay [6]; 0.663 µM in [7]; 2.71 µM in assay [8]; 1.44 µM in assay [9]; 0.659 µM in assay [10]. The concentration for total growth inhibition (TGI) in [11] was found to be 0.698 µM; in assay [16], 0.302 µM; in assay [12], 0.325 µM.

For the compound `O=C(OCC1OC(c2nn[nH]n2)C(OC(=O)c2ccccc2)C1OC(=O)c1ccccc1)c1ccccc1` (stereo not drawn), the TGI in assay [14], in assay [1], in assay [2], in [3], in assay [4] and in [5] was greater than 100 µM each time. Also, the concentration for total growth inhibition (TGI) in assay [7], in [15], in assay [8], in assay [9], in assay [10] and in assay [11] was greater than 100 µM in each case. Also, the TGI in [16] and in assay [12] was greater than 100 µM each time.

`c1cncc(-c2ncc3cccnc3n2)c1`: the concentration for total growth inhibition (TGI) in assay [1], in assay [2], in [3], in [4], in assay [5] and in assay [7] was greater than 100 µM throughout. The TGI in assay [15], in [8], in [9], in assay [10], in assay [11] and in [16] was greater than 100 µM in each case. This compound yielded a total growth inhibition concentration (TGI) in assay [12] greater than 100 µM.

By TGI is commonly meant the concentration giving total growth inhibition. High values mean lower sensitivity of the cells, low ones greater sensitivity of the cells.
